Data published in paper PMC7011974, “Benzimidazole derivatives endowed with potent antileishmanial activity” (Journal of Enzyme Inhibition and Medicinal Chemistry, 2017).
“And” between values parts separate entries of the source, which are not always exact repeats. Equal values may be shown once. Read-outs that look alike come from different tables or passages of the source. Values belong to the molecule of their own block, whether it stands above or below them.

Legend:
L. major (promastigotes) = system: L. major (promastigotes); set-up: method as in PMID 20430484, PMID 15183913, PMID 18486471; details: Figure 3; cited from earlier work
[1] = system: L. infantum promastigotes; assay: Antileishmanial activity on L. infantum promastigotes (MTT); type: cell-based, Leishmania infantum; details: for IC50: Leishmania infantum; for IC50 amph. B ×100/IC50 compd., L. infantum: percent of amphotericin B potency, calculated for each experiment
L. tropica promastigotes = assay: Antileishmanial activity on L. tropica promastigotes (MTT); type: cell-based, Leishmania tropica; details: for IC50: Leishmania tropica; for IC50 amph. B ×100/IC50 compd., L. tropica: percent of amphotericin B potency, calculated for each experiment
[2] = system: human microvascular endothelial cell line (HMEC-1); assay: Cytotoxicity on HMEC-1 cells (MTT); type: cell-based; details: for IC50: Homo sapiens, cytotoxicity, HMEC-1 cells, MTT
[3] = system: L. mexicana (promastigotes); set-up: method as in PMID 20430484, PMID 15183913, PMID 18486471; details: Figure 3; cited from earlier work
[4] = system: L. donovani (promastigotes); set-up: method as in PMID 20430484, PMID 15183913, PMID 18486471; details: Figure 3; cited from earlier work
[5] = system: L. mexicana (amastigotes); set-up: method as in PMID 20430484, PMID 15183913, PMID 18486471; details: Figure 3; cited from earlier work
[6] = system: renal cancer cell line UO31; set-up: method as in ref 25b = [25]; 25 (a) Novelli F , Tasso B , Sparatore F. Synthesis and biological investigations of 2-(tetrahydropyran-2'-yl) and 2-(tetrahydrofuran-2'-yl)benzimidazoles . Farmaco 1997; 52 : 499 – 507 . (b) Tonelli; details: ref 25b; cited from earlier work
in vitro = details: monkey
[7] = system: respiratory syncytial virus (RSV); set-up: method as in ref 24c = [24]; 24 (a) Tonelli M , Paglietti G , Boido V , et al Antiviral activity of benzimidazole derivatives. I. Antiviral activity of 1-substituted-2-[(benzotriazol-1/2-yl)methyl]benzimidazoles . Chem Biodivers; details: ref 24c; cited from earlier work
[8] = system: Coxsackie virus B5 (CVB-5); set-up: method as in ref 24c = [24]; 24 (a) Tonelli M , Paglietti G , Boido V , et al Antiviral activity of benzimidazole derivatives. I. Antiviral activity of 1-substituted-2-[(benzotriazol-1/2-yl)methyl]benzimidazoles . Chem Biodivers; details: ref 24c; cited from earlier work
[9] = system: 24 human cancer cell lines; set-up: method as in ref 25b = [25]; 25 (a) Novelli F , Tasso B , Sparatore F. Synthesis and biological investigations of 2-(tetrahydropyran-2'-yl) and 2-(tetrahydrofuran-2'-yl)benzimidazoles . Farmaco 1997; 52 : 499 – 507 . (b) Tonelli; details: ref 25b; read-out: GI50 against 24 human cancer cell lines; cited from earlier work
[10] = system: intramacrophagic amastigote stage of L. infantum; assay: In vitro intracellular amastigote susceptibility assay in THP-1 macrophages; type: cell-based, Leishmania infantum
Method: (b) In vitro intracellular amastigote susceptibility assays. […] Cell monolayers were then washed and incubated with compounds for 72 h. Slides were fixed with methanol and stained with Giemsa. The percentage of infected macrophages in treated and non-treated cells was determined by light microscopy.

[11] = system: serum cholesterol concentration; set-up: method as in ref 21 = [21]; 21 (a) Sparatore F , Boido V , Fanelli F. Dialkylaminoalkylbenzimi-dazoles of pharmacological interest . Farmaco Sci 1968; 23 : 344 – 59 . (b) Paglietti G , Sparatore F. Dialkylaminoalkyl-benzimidazo; details: hypercholesterolemic mice, 50 mg/kg p.os; cited from earlier work
[12] = promastigotes, MTT, 72 h, read-out: IC50 (µM) L. infantum
[13] = 72 h, promastigotes, MTT, 72 h, starred values mean of two experiments, read-out: IC50 (µM) L. tropica

IC50 [1, 12]: 0.135 ± 0.03 µM | IC50 ([1]; range of values across experiments, read-out: IC50 range over many different experiments, L. infantum): 0.094 to 0.209 µM | IC50 amph. B ×100/IC50 compd., L. infantum [1]: 100 | IC50 (L. tropica promastigotes; [13]): 0.113 ± 0.03 µM | IC50 (L. tropica promastigotes; range of values across experiments, read-out: IC50 range over many different experiments, L. tropica): 0.082 to 0.177 µM | IC50 amph. B ×100/IC50 compd., L. tropica (L. tropica promastigotes): 100
SMILES: C[C@@H]1[C@H](O)[C@@H](C)/C=C/C=C/C=C/C=C/C=C/C=C/C=C/[C@H](O[C@@H]2O[C@H](C)[C@@H](O)[C@H](N)[C@@H]2O)C[C@@H]2O[C@](O)(C[C@@H](O)C[C@@H](O)[C@H](O)CC[C@@H](O)C[C@@H](O)CC(=O)O[C@H]1C)C[C@H](O)[C@H]2C(=O)O [Amph. B, amphotericin B, reference compound]
IC50 (L. major (promastigotes)): 0.61 µM | IC50 [2]: 25.7 ± 1.9 µM | SI L. infantum (IC50 HMEC-1/IC50 L. infantum) ([2]; selectivity index, HMEC-1): 190.4 | SI L. tropica (IC50 HMEC-1/IC50 L. tropica) ([2]; selectivity index, HMEC-1): 227.4

SMILES: N=C(N)c1ccc(OCCCCCOc2ccc(C(=N)N)cc2)cc1 [pentamidine]
IC50 [3]: 2.42 µM | IC50 [4]: 2.2 µM and 2.87 µM | IC50 [5]: 9.57 µM

SMILES: FC(F)(F)c1ccc2c(c1)nc(Cc1ccc(Cl)cc1)n2C[C@@H]1CCCN2CCCC[C@H]12 [Compound 28, 2-(4-chlorobenzyl)-1-lupinyl-5-trifluoromethylbenzimidazole]
GI50 [6]: 0.019 µM | IC50 [1, 12]: 4.76 ± 1.6 µM | IC50 amph. B ×100/IC50 compd., L. infantum [1]: 4.4 | IC50 (in vitro): > 100 µM | EC50 [7]: 15 µM | EC50 [8]: 13 µM | IC50 (L. tropica promastigotes; [13]): 3.7 ± 1.19 µM | IC50 amph. B ×100/IC50 compd., L. tropica (L. tropica promastigotes): 4.8 | GI50 [9]: < 5 µM | IC50 [2]: 16.9 µM | Reduction of the amastigote infection of THP-1 cells ([10]; 2 μM concentration): 33.2% | IC50 ([10]; Leishmania infantum, THP-1 macrophages, 72 h, read-out: IC50 against intramacrophagic amastigote stage of L. infantum): > 2 µM

SMILES: CCN(CC)CCCn1c(Cc2ccc(Cl)cc2)nc2cc(C(F)(F)F)ccc21 [2-(4-chlorobenzyl)-1-(3-diethylaminopropyl)-5-trifluoromethylbenzimidazole]
Reduction of serum cholesterol concentration [11]: > 15%
